Experiment: Adriamycin elution from bone cement in vitro
Type: physicochemical
Details: one or two vials (10 mg adriamycin each) added to a packet of PMMA bone cement (22.5 g powder + 9 ml liquid monomer)
Experimental: […] […] They were mixed thoroughly to ensure there are no large adriamycin flakes. […] One gram of this composite elutes 340 micrograms of adriamycin within 24 hours in vitro. The prepared bone cement drug powder was then loaded in sterile syringes (2 g/syringe). To prepare the bone cement putty for implantation and in situ polymerization, 1 ml of Confidence™ monomer was added to this powder and mixed thoroughly 5 minutes prior to implantation.

Question: Which “elution of adriamycin from PMMA bone cement without filler” value does the source give for `COc1cccc2c1C(=O)c1c(O)c3c(c(O)c1C2=O)C[C@@](O)(C(=O)CO)C[C@@H]3O[C@H]1C[C@H](N)[C@H](O)[C@H](C)O1` [adriamycin] here?
Answer: negligible elution

From US20110111061A1, “Compositions and Methods for the Treatment of Skeletal Metastatic Lesions and Fractures” (priority 2008, published 2011)
